Test results published in patent publication US12139520B2 (priority 2020, dated 2024).
Bridge positions count the residues as written; N and C are the ends. Square brackets hold non-standard residues; d marks the D form. Peptide text beside a SMILES is read from it. Hyp = O=C(O)[C@@H]1C[C@@H](O)CN1; Cit = NC(=O)NCCC[C@H](N)C(=O)O

What was measured:
[1] = target: hAM1 receptor (Homo sapiens, UniProt O60895+Q16602); test: cAMP assay for in vitro receptor activation, hAM1-R; type: cell-based; conditions: cAMP assay, hAM1 receptor; read-out: hAM1R EC50
Chain of hAM1 receptor (Q16602 23-461): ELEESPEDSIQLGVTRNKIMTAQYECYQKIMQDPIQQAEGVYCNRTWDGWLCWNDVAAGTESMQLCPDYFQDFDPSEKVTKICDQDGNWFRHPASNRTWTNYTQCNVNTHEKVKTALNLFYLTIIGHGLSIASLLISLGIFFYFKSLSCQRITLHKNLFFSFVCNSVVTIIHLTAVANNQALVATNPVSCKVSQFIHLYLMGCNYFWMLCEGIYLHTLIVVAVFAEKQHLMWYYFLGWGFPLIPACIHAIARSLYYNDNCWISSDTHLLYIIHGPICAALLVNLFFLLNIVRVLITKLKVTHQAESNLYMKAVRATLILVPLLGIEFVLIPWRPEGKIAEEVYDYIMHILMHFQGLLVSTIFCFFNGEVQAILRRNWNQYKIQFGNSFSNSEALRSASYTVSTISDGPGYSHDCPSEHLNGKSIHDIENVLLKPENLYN
Chain of hAM1 receptor (O60895 43-175 partner): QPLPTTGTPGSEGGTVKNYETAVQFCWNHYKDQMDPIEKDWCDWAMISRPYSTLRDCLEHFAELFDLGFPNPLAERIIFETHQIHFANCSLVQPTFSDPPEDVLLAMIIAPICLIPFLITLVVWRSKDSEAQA
Summary of the method: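 A subcloned monoclonal line stably expressing hAM1 receptor is thawed and plated at 8000 cells/well. The assay buffer is DPBS with 0.05% casein and 0.5 mM IBMX, and receptor activation is followed by cAMP levels.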

[2] = Physical stability of peptide analogues (Thioflavin T fibrillation); type: physicochemical; conditions: maximum ThT signal normalized between hAMY maximum and buffer background; 40° C., shaking, four days; pH 7 per table title
Summary of the method: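 1 h in 50 mM NaOAc pH 4 / 50 mM NaPi pH 7; + ThT 4 μM final; 40 °C, 700 rpm linear shake 5 min pre-read; ex 450, em 480 nm q10 min × 4 d; LOESS smoothing; max signal normalised to hAMY max vs buffer blank.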

SMILES	EC50 [1] [µM]	Max ThT signal (%) [2] [%]
CC[C@H](C)[C@H](NC(=O)[C@H](CCC(N)=O)NC(=O)[C@H](Cc1c[nH]cn1)NC(=O)[C@H](C)NC(=O)[C@H](CC(C)C)NC(=O)[C@H](CCCNC(N)=O)NC(=O)[C@H](CCC(N)=O)NC(=O)[C@@H](NC(=O)[C@@H](NC(=O)[C@@H]1CSSC[C@H](NC(=O)CN)C(=O)N[C@@H](CCCNC(=N)N)C(=O)N[C@@H](Cc2c[nH]c3ccccc23)C(=O)NCC(=O)N[C@@H]([C@@H](C)O)C(=O)N1)[C@@H](C)O)C(C)C)C(=O)N[C@@H](Cc1ccc(O)cc1)C(=O)N[C@@H](CCC(N)=O)C(=O)N[C@@H](Cc1ccccc1)C(=O)N[C@H](C(=O)N[C@@H](CC(=O)O)C(=O)N[C@@H](CCCCN)C(=O)N[C@@H](CC(=O)O)C(=O)N[C@@H](CCCCN)C(=O)N[C@@H](CC(=O)O)C(=O)N[C@@H](CC(N)=O)C(=O)N[C@H](C(=O)N[C@@H](C)C(=O)N1CCC[C@H]1C(=O)N[C@@H](CCCNC(=N)N)C(=O)N[C@@H](CO)C(=O)N[C@@H](CCCCN)C(=O)N[C@H](C(=O)N[C@@H](CO)C(=O)N1CCC[C@H]1C(=O)N[C@@H](CCC(N)=O)C(=O)N[C@H](C(=O)N1C[C@H](O)C[C@H]1C(N)=O)[C@@H](C)O)[C@@H](C)CC)C(C)C)[C@@H](C)O [compound 296] (H-GCRWGTCTVQ[Cit]LAHQIYQFTDKDKDNVAPRSKISPQT[Hyp]-NH2; disulfide 2-7; N-terminus assumed)	> 5	26.050
CC[C@H](C)[C@H](NC(=O)[C@H](CCC(N)=O)NC(=O)[C@H](Cc1c[nH]cn1)NC(=O)[C@H](C)NC(=O)[C@H](CC(C)C)NC(=O)[C@H](CCCNC(=N)N)NC(=O)[C@H](CCC(N)=O)NC(=O)[C@@H](NC(=O)[C@@H](NC(=O)[C@@H]1CSSC[C@H](NC(=O)CN)C(=O)N[C@@H](CCCNC(=N)N)C(=O)N[C@@H](Cc2ccccc2)C(=O)NCC(=O)N[C@@H]([C@@H](C)O)C(=O)N1)[C@@H](C)O)C(C)C)C(=O)N[C@@H](Cc1ccc(O)cc1)C(=O)N[C@@H](CCC(N)=O)C(=O)N[C@@H](Cc1ccccc1)C(=O)N[C@H](C(=O)N[C@@H](CC(=O)O)C(=O)N[C@@H](CCCCN)C(=O)N[C@@H](CC(=O)O)C(=O)N[C@@H](CCCCN)C(=O)N[C@@H](CC(=O)O)C(=O)N[C@@H](CC(N)=O)C(=O)N[C@H](C(=O)N[C@@H](C)C(=O)N1CCC[C@H]1C(=O)N[C@@H](CO)C(=O)N[C@@H](CO)C(=O)N[C@@H](CCCCN)C(=O)N[C@H](C(=O)N[C@@H](CO)C(=O)N1CCC[C@H]1C(=O)N[C@@H](CCC(N)=O)C(=O)N[C@H](C(=O)N1C[C@H](O)C[C@H]1C(N)=O)[C@@H](C)O)[C@@H](C)CC)C(C)C)[C@@H](C)O [compound 240] (H-GCRFGTCTVQRLAHQIYQFTDKDKDNVAPSSKISPQT[Hyp]-NH2; disulfide 2-7; N-terminus assumed)	> 5	3.700
CC[C@H](C)[C@H](NC(=O)[C@H](CCC(N)=O)NC(=O)[C@H](Cc1c[nH]cn1)NC(=O)[C@H](C)NC(=O)[C@H](CC(C)C)NC(=O)[C@H](CCCNC(=N)N)NC(=O)[C@H](CCC(N)=O)NC(=O)[C@@H](NC(=O)[C@@H](NC(=O)[C@@H]1CSSC[C@H](NC(=O)CN)C(=O)N[C@@H](CCCNC(=N)N)C(=O)N[C@@H](Cc2ccccc2)C(=O)NCC(=O)N[C@@H]([C@@H](C)O)C(=O)N1)[C@@H](C)O)C(C)C)C(=O)N[C@@H](Cc1ccc(O)cc1)C(=O)N[C@@H](CCC(N)=O)C(=O)N[C@@H](Cc1ccccc1)C(=O)N[C@H](C(=O)N[C@@H](CC(=O)O)C(=O)N[C@@H](CCCCN)C(=O)N[C@@H](CC(=O)O)C(=O)N[C@@H](CCCCN)C(=O)N[C@@H](CC(=O)O)C(=O)N[C@@H](CC(N)=O)C(=O)N[C@H](C(=O)N[C@@H](C)C(=O)N1CCC[C@H]1C(=O)N[C@@H](CCCNC(=N)N)C(=O)N[C@@H](CO)C(=O)N[C@@H](CCCCN)C(=O)N[C@H](C(=O)N[C@@H](CO)C(=O)N1CCC[C@H]1C(=O)N[C@@H](CCC(N)=O)C(=O)N[C@H](C(=O)N1C[C@H](O)C[C@H]1C(N)=O)[C@@H](C)O)[C@@H](C)CC)C(C)C)[C@@H](C)O [compound 168] (H-GCRFGTCTVQRLAHQIYQFTDKDKDNVAPRSKISPQT[Hyp]-NH2; disulfide 2-7; N-terminus assumed)	> 5	12.500

Continued, values first:

EC50 [1] [µM]	Max ThT signal (%) [2] [%]	SMILES
> 5	26.350	CC[C@H](C)[C@H](NC(=O)[C@H](CCC(N)=O)NC(=O)[C@H](Cc1c[nH]cn1)NC(=O)[C@H](C)NC(=O)[C@H](CC(C)C)NC(=O)[C@H](Cc1c[nH]c2ccccc12)NC(=O)[C@H](CCC(N)=O)NC(=O)[C@@H](NC(=O)[C@@H](NC(=O)[C@@H]1CSSC[C@H](NC(=O)CN)C(=O)N[C@@H](CCCNC(=N)N)C(=O)N[C@@H]([C@@H](C)O)C(=O)NCC(=O)N[C@@H]([C@@H](C)O)C(=O)N1)[C@@H](C)O)C(C)C)C(=O)N[C@@H](Cc1ccc(O)cc1)C(=O)N[C@@H](CCC(N)=O)C(=O)N[C@@H](Cc1ccccc1)C(=O)N[C@H](C(=O)N[C@@H](CC(=O)O)C(=O)N[C@@H](CCCCN)C(=O)N[C@@H](CC(=O)O)C(=O)N[C@@H](CCCCN)C(=O)N[C@@H](CC(=O)O)C(=O)N[C@@H](CC(N)=O)C(=O)N[C@H](C(=O)N[C@@H](C)C(=O)N1CCC[C@H]1C(=O)N[C@@H](CCCNC(=N)N)C(=O)N[C@@H](CO)C(=O)N[C@@H](CC(N)=O)C(=O)N[C@H](C(=O)N[C@@H](CO)C(=O)N1CCC[C@H]1C(=O)N[C@@H](CC(N)=O)C(=O)NCC(=O)N1C[C@H](O)C[C@H]1C(N)=O)C(C)C)C(C)C)[C@@H](C)O [compound 360] (H-GCRTGTCTVQWLAHQIYQFTDKDKDNVAPRSNVSPNG[Hyp]-NH2; disulfide 2-7)
0.13	2.500	CC[C@H](C)[C@H](NC(=O)[C@H](CCCCN)NC(=O)[C@@H](NC(=O)[C@H](CCCNC(=N)N)NC(=O)[C@@H]1CCCN1C(=O)[C@H](C)NC(=O)[C@@H](NC(=O)[C@H](CC(N)=O)NC(=O)[C@H](CC(=O)O)NC(=O)[C@H](CCCCN)NC(=O)[C@H](CC(=O)O)NC(=O)[C@H](CCCCN)NC(=O)[C@H](CC(=O)O)NC(=O)[C@@H](NC(=O)[C@H](Cc1ccccc1)NC(=O)[C@H](CCC(N)=O)NC(=O)[C@H](Cc1ccc(O)cc1)NC(=O)[C@@H](NC(=O)[C@H](CCC(N)=O)NC(=O)[C@H](Cc1c[nH]cn1)NC(=O)[C@H](C)NC(=O)[C@H](CC(C)C)NC(=O)[C@H](CCCNC(=N)N)NC(=O)[C@H](CCC(N)=O)NC(=O)[C@@H](NC(=O)[C@@H](NC(=O)[C@@H]1CSSC[C@H](NC(=O)CN)C(=O)N[C@@H](CCCNC(=N)N)C(=O)N[C@@H]([C@@H](C)O)C(=O)NCC(=O)N[C@@H]([C@@H](C)O)C(=O)N1)[C@@H](C)O)C(C)C)[C@@H](C)CC)[C@@H](C)O)C(C)C)[C@@H](C)O)C(=O)NCC(=O)N1CCC[C@H]1C(=O)N[C@@H](CC(N)=O)C(=O)NCC(=O)N1C[C@H](O)C[C@H]1C(N)=O [compound 115] (H-GCRTGTCTVQRLAHQIYQFTDKDKDNVAPRTKIGPNG[Hyp]-NH2; disulfide 2-7; N-terminus assumed)
